Experiment [1] deals with voltage-dependent Ca2+ channels (isolated rat ileum). The experiment is described as follows: Calcium antagonism: relaxation of K+. Particulars: K+ (80 mM)-induced contractions of rat ileum; mean ± SD, three independent experiments.
For experiment [2], the target named is ACE2:SARS-CoV-2 Spike (RBD) (Homo sapiens, UniProt Q9BYF1). The experiment is described as follows: biochemical. The class given is binding.
Experiment [3] deals with PMA-differentiated THP-1 cells. The experiment is described as follows: PMA-differentiated THP-1 cell viability assay. The class given is cell-based. To be noted: Homo sapiens, THP-1, 24 h.
In another experiment the test system is Male Wistar albino rats. The class given is in vivo, rat. Particulars: mean arterial BP compared to the control group.
In experiment [4] the test system is IL-6 production in LPS-stimulated THP-1 cells. The experiment is described as follows: IL-6 production by LPS-stimulated PMA-differentiated THP-1 cells. It is filed as cell-based, human. Particulars: compared to LPS (positive control); for Reduction of IL-6 level: compound at 1/4 IC50, added 2 h prior to LPS 0.5 μg/mL, 24 h.
The test system of experiment [5] is CRP production in LPS-stimulated THP-1 cells. The experiment is described as follows: CRP production by LPS-stimulated PMA-differentiated THP-1 cells. The class given is cell-based, human. Particulars: compared to LPS (positive control); for Effect on CRP level (in words): compound at 1/4 IC50, LPS 0.5 μg/mL.

≈ marks a conversion by molar mass, not a printed value. Where “and” joins values, the source holds several entries; their conditions need not be identical. Identical values can stand only once. Like-named read-outs stand apart in the source and are kept apart here.

As a reminder, the IC50 is the concentration that inhibits the measured activity by half.

Sequence of ACE2:SARS-CoV-2 Spike (RBD) (Q9BYF1 18-740): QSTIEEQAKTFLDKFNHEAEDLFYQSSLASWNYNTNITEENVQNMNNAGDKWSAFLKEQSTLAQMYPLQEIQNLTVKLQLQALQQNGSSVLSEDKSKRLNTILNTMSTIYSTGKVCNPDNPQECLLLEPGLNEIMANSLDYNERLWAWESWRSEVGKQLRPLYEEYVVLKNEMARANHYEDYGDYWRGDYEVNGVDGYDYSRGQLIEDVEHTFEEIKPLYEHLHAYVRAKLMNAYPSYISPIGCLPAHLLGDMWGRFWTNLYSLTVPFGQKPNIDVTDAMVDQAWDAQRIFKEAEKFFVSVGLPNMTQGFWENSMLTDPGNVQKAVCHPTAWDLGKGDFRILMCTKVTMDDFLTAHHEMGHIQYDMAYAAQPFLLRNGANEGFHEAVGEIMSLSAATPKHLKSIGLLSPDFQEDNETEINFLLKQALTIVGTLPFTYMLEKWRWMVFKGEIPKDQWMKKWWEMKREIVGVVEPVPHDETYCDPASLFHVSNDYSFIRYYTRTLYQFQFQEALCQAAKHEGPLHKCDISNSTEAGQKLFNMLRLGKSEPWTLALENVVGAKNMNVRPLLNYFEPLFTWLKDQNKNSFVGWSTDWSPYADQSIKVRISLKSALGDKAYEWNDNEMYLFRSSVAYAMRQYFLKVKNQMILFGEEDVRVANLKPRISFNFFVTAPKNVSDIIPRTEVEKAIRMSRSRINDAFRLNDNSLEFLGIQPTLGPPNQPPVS

Turning to `CCOC(=O)C1=C(C)NC(=S)NC1c1ccccc1C#N` (stereo not shown) [Compound 4a, Ethyl-4-(2-cyanophenyl)-6-methyl-2-thioxo-1,2,3,4-tetrahydropyrimidine-5-carboxylate], the IC50 in experiment [1] is 23.07 ± 1.53 mg/L (≈ 76.6 µM); in experiment [2], 0.0085 ± 0.00092 µM; in experiment [3] it was 1550 ± 134 mg/L; in experiment [3] (read-out: IC50 µM), 533 µM.

Regarding `CCOC(=O)C1=C(C)NC(=S)NC1c1ccccc1Cl` (stereo not shown) [Compound 4b, Ethyl-4-(2-chlorophenyl)-6-methyl-2-thioxo-1,2,3,4-tetrahydropyrimidine-5-carboxylate], the half-inhibitory concentration (IC50) in experiment [1] is 24.69 ± 2.35 mg/L (≈ 79.4 µM); in experiment [2] it was ~0.0125 µM and 0.0125 µM; in experiment [3], 698 ± 65.6 mg/L; in experiment [3] (read-out: IC50 µM), 231 µM.

As for `CCOC(=O)C1=C(C)NC(=S)NC1c1ccccc1Br` (stereo not shown) [Compound 4c, Ethyl-4-(2-bromophenyl)-6-methyl-2-thioxo-1,2,3,4-tetrahydropyrimidine-5-carboxylate], the “% reduction in BP” value in the experiment on Male Wistar albino rats is “about 21%”. Further, the 50% inhibitory concentration (IC50) amounted to 23.62 ± 2.33 mg/L (≈ 66.5 µM) in experiment [1] and 0.023 ± 0.001 µM in experiment [2].

Take `CC1=C(C(=O)O)C(c2ccccc2C#N)NC(=S)N1` (stereo not shown) [Compound 5a, 4-(2-cyanophenyl)-6-methyl-2-thioxo-1,2,3,4-tetrahydropyrimidine-5-carboxylic acid]: the half-maximal inhibitory concentration (IC50) in experiment [1] is 24.37 ± 1.45 mg/L (≈ 89.2 µM); in experiment [2], 0.0098 ± 0.00106 µM; in experiment [3], 496 ± 38.7 mg/L; in experiment [3] (read-out: IC50 µM), 118 µM. The “Reduction of IL-6 level” value in experiment [4] is “about 56%”. The “Effect on CRP level (in words)” value in experiment [5] is recorded as “moderate decrease”.

In the case of `CC1=C(C(=O)O)C(c2ccccc2Cl)NC(=S)N1` (stereo not shown) [Compound 5b, 4-(2-chlorophenyl)-6-Methyl-2-thioxo-1,2,3,4-tetrahydropyrimidine-5-carboxylic acid], the IC50 was 25.25 ± 1.39 mg/L (≈ 89.3 µM) in experiment [1]; ~0.0125 µM and 0.0125 µM in experiment [2]; 967 ± 79.2 mg/L in experiment [3]; 342 µM in experiment [3] (read-out: IC50 µM).

Turning to `CC1=C(C(=O)Cl)C(c2ccccc2C#N)NC(=S)N1` (stereo not shown) [Compound 6a, 6-Methyl-4-(2-cyanophenyl)-2-thioxo-1,2,3,4-tetrahydropyrimidine-5-carbonyl chloride], the IC50 in experiment [1] worked out at 26.84 ± 1.51 mg/L; in experiment [2], 0.0175 ± 0.00131 µM.

Take `CC1=C(C(=O)Cl)C(c2ccccc2Cl)NC(=S)N1` (stereo not shown) [Compound 6b, 6-Methyl-4-(2-chlorophenyl)-2-thioxo-1,2,3,4-tetrahydropyrimidine-5-carbonyl chloride]: the IC50 was found to be 30.78 ± 2.52 mg/L in experiment [1] and 0.0237 ± 0.00135 µM in experiment [2].

In the case of `CC1=C(C(=O)Cl)C(c2ccccc2Br)NC(=S)N1` (stereo not shown) [Compound 6c, 6-Methyl-4-(2-bromophenyl)-2-thioxo-1,2,3,4-tetrahydropyrimidine-5-carbonyl chloride], the IC50 in experiment [1] is 29.73 ± 2.44 mg/L; in experiment [2], 0.0165 ± 0.00108 µM.

With `CC1=C(C(=O)Nc2ccccc2)C(c2ccccc2C#N)NC(=S)N1` (stereo not shown) [Compound 7a, 4-(2-cyanophenyl)-6-methyl-N-phenyl-2-thioxo-1,2,3,4-tetrahydropyrimidine-5-carboxamide], the “% reduction in BP” value with Male Wistar albino rats was “up to 29%”. For the same compound, the concentration for half-maximal inhibition (IC50) is 19.65 ± 1.60 mg/L (≈ 56.4 µM) in experiment [1], 0.0116 ± 0.00094 µM in experiment [2], 434 ± 32.9 mg/L in experiment [3] and 123 µM in experiment [3] (read-out: IC50 µM). Besides, the “Effect on IL-6 level (in words)” value in experiment [4] (compound at 1/4 IC50, LPS 0.5 μg/mL) is “lowest effect”.

For the compound `CC1=C(C(=O)Nc2ccc(C)cc2)C(c2ccccc2C#N)NC(=S)N1` (stereo not shown) [Compound 7b, 4-(2-cyanophenyl)-6-methyl-N-(4-methylphenyl)-2-thioxo-1,2,3,4-tetrahydropyrimidine-5-carboxamide], the IC50 in experiment [1] is 22.81 ± 2.46 mg/L (≈ 62.9 µM); in experiment [2] it was 0.0108 ± 0.00075 µM; in experiment [3] it was 222 ± 10.1 mg/L; in experiment [3] (read-out: IC50 µM), 61 µM. Besides, the “Reduction of IL-6 level” value in experiment [4] was found to be 47%. In experiment [5], the “Effect on CRP level (in words)” value is on record as “moderate decrease”.

For the compound `CC1=C(C(=O)Nc2ccc(F)cc2)C(c2ccccc2C#N)NC(=S)N1` (stereo not shown) [Compound 7c, 4-(2-cyanophenyl)-6-methyl-N-(4–fluorophenyl)-2-thioxo-1,2,3,4-tetrahydropyrimidine-5-carboxamide], the half-inhibitory concentration (IC50) in experiment [1] worked out at 22.85 ± 1.11 mg/L (≈ 62.4 µM); in experiment [2], 0.0201 ± 0.0011 µM.

With `CC1=C(C(=O)Nc2ccccc2)C(c2ccccc2Cl)NC(=S)N1` (stereo not shown) [Compound 8a, 4-(2-chlorophenyl)-6-methyl-N-phenyl-2-thioxo-1,2,3,4-tetrahydropyrimidine-5-carboxamide], the “% reduction in BP” value in the experiment on Male Wistar albino rats is recorded as “up to 29%”. The half-maximal inhibitory concentration (IC50) was 20.23 ± 1.79 mg/L (≈ 56.5 µM) in experiment [1], 0.0106 ± 0.00061 µM in experiment [2], 464 ± 29.7 mg/L in experiment [3] and 125 µM in experiment [3] (read-out: IC50 µM).

Consider `CC1=C(C(=O)Nc2ccc(C)cc2)C(c2ccccc2Cl)NC(=S)N1` (stereo not shown) [Compound 8b, 4-(2-chlorophenyl)-6-methyl-N-(4-methylphenyl)-2-thioxo-1,2,3,4-tetrahydropyrimidine-5-carboxamide], for which the IC50 was 22.91 ± 2.59 mg/L (≈ 61.6 µM) in experiment [1] and 0.0192 ± 0.00111 µM in experiment [2].

`CC1=C(C(=O)Nc2ccccc2)C(c2ccccc2Br)NC(=S)N1` (stereo not shown) [Compound 9a, 4-(2-bromophenyl)-6-methyl-N-phenyl-2-thioxo-1,2,3,4-tetrahydropyrimidine-5-carboxamide]: in the experiment with Male Wistar albino rats, the “% reduction in BP” value is 27%. Moreover, the IC50 in experiment [1] was 21.45 ± 2.55 mg/L (≈ 53.3 µM); in experiment [2], 0.0137 ± 0.00137 µM; in experiment [3], 484.9 ± 3.24 mg/L; in experiment [3] (read-out: IC50 µM), 116 µM. Moreover, in experiment [4], the “Reduction of IL-6 level” value is reported as ~79%. Also, in experiment [5] (compound at 1/4 IC50, added 2 h prior to LPS 0.5 μg/mL, 24 h), the “Decrease in the level of CRP” value is given as “about 95%”.

Values taken from paper PMC8403975 (Bioorganic Chemistry, 2021).
